Values of other authors as cited in US20060287529A1, “Solid phase synthesis of antitumoral compounds” (priority 2003, published 2006).

Assays:
lung cancer cell lines = conditions: acting as a Type IV microtubule poison; background statement
fertilised sea urchin = fertilised sea urchin assay; background statement
P388 cell line = P388 cell line in culture; background statement
A549 cell line = A549 cell line in culture; background statement

Molecule | activity in lung cancer cell lines (lung cancer cell lines) | inhibition of cell division (fertilised sea urchin) | cytotoxicity (P388 cell line) | cytotoxicity (A549 cell line)
COc1ccc(-c2c3c4cc(OC)c(O)cc4oc(=O)c3n3ccc4cc(O)c(OC)cc4c23)cc1O [lamellarin N, 3,10-dihydroxy-2,12-dimethoxy-14-(3′-hydroxy-4′-methoxy-phenyl)-6H-[1]benzopyrano[4′,3′:4,5]pyrrolo[2,1-α]isoquinolin-6-one] | exhibit activity |  |  | 
lamellarin D |  | inhibition of cell division |  | 
COc1cc(-c2c3n(c4c(=O)oc5cc(O)c(OC)cc5c24)CCc2c-3cc(OC)c(OC)c2OC)ccc1O [lamellarin C] |  | inhibition of cell division |  | 
lamellarin I |  |  | comparable cytoxicity | comparable cytoxicity
lamellarin K |  |  | comparable cytoxicity | comparable cytoxicity
COc1ccc(-c2c3n(c4c(=O)oc5cc(O)c(OC)cc5c24)CCc2cc(O)c(OC)cc2-3)cc1O [lamellarin L, 8,9-dihydro-3,11-dihydroxy-2,12-dimethoxy-14-(3′-hydroxy-4′-methoxy-phenyl)-6H-[1]benzopyrano[4′,3′:4,5]pyrrolo[2,1-α]isoquinolin-6-one] |  |  | comparable cytoxicity | comparable cytoxicity
